Data published in paper PMC9026428, “New Peptide Based Fluconazole Conjugates with Expanded Molecular Targets” (Pharmaceutics, 2022).
Converted amounts (≈) assume the structure as drawn. Residues, ends and D or L forms follow the SMILES beside them. *: point of attachment. X1 = O=C(CCCC(=O)*)OC(Cn1cncn1)(Cn1cncn1)c1ccc(F)cc1F

Legend:
Assay in all cases: microbe, parasite or virus in culture
[1] = system: Candida krusei DSM 11226; conditions: C. krusei DSM 11226, 37 °C; for MIC50 / MIC90: RPMI 1640/MOPS pH 7.0, 24 h, triplicate; for MIC50: at least 50% growth inhibition vs growth control; for MIC90: lowest concentration with no visible growth; for MFC: aliquots plated on YPD agar, 24 h, lowest concentration with no colony growth
Experimental: (§1) The assessment of antifungal potential of synthesized agents was carried out using four reference strains (C. albicans ATCC 10231, C. albicans SC5314, C. glabrata DSM […] and C. krusei DSM […]) and six clinical isolates of fluconazole-resistant C. albicans that were provided by the Hospital of Medical University of Gdansk, Poland. Moreover, four C. albicans isolates, assigned as B3, B4, Gu4 and Gu5, were used for investigation whether the synthesized fluconazole derivatives were effectively removed from the yeast cells by the drug efflux transporters, as in the case of fluconazole. These strains were kindly provided by Prof. Joachim Morschhäuser from University of Würzburg (Würzburg, Germany). Strains Gu4 and B3 were fluconazole-sensitive isolates obtained from early infection episodes, while Gu5 and B4 were the corresponding fluconazole-resistant isolates obtained from later episodes in the same patients treated with fluconazole. The lack of susceptibility of the Gu5 strain to fluconazole was a consequence of overexpression of CDR1/2 genes encoding ABC transporters, whereas the resistance of B4 strain was caused by overexpression of the MDR1 gene encoding a membrane transport protein of the major facilitator superfamily (MFS). All of these Candida spp. strains were maintained on YPD agar plates (1% (w/v) yeast extract, 2% (w/v) peptone, 2% (w/v) glucose, 2% (w/v) agar) at 30 °C for 16–24 h. For all of the assays aimed at assessing the antifungal potential of the synthesized agents, the yeasts were cultivated at 37 °C in RPMI 1640 medium (with L-glutamine, without sodium bicarbonate, Sigma-Aldrich, Darmstadt, Germany)) buffered to a pH of 7.0 with 0.165 M morpholinepropanesulfonic acid (MOPS) buffer (Sigma-Aldrich). In this study, we used the human foreskin fibroblast cell line Hs27 (ATCC CRL 1634TM) and the human endothelial cell line HUVEC (C2519A), purchased from Lonza Group AG, (Basel, Switzerland). The Hs27 cells were maintained in cell media consisting of Dulbecco’s modified Eagles medium (DMEM), (Corning, Arizona, USA) with 10% fetal bovine serum (FBS), (Corning, Port Elizabeth, South Africa), 1% penicillin/streptomycin (Sigma-Aldrich Inc., Darmstadt, Germany), and 1% L-glutamine (Corning, Arizona, USA). The human endothelial cell line was maintained in cell media consisting of Endothelial Cell Growth Medium-2 Single Quots Kit (Lonza, USA). Both cell lines were cultured in an incubator at 37 °C and 5% CO2.
(§2) Antifungal activity of the tested compounds against yeast cells was determined in 96-well plates as described in the CLSI document M27-A3 [39], with minor modifications (CLSI, 2008). […] The plates were incubated for 24 h at 37 °C. Each test was performed in triplicate. The final concentration of DMSO was ensured to be around 1% in all experiments.
(§3) For determination of minimum fungicidal concentrations (MFC), small aliquots of suspensions (around 10 μL) from each well were transferred using the pipette to YPD agar plates without inhibitors and incubated for 24 h at 37 °C.

[2] = system: Candida albicans B4; conditions: 37 °C; for MIC50 / MIC90: C. albicans B4 (fluconazole-resistant, MDR1 overexpression), RPMI 1640/MOPS pH 7.0, 24 h, triplicate; for MIC50: at least 50% growth inhibition vs growth control; for MIC90: lowest concentration with no visible growth
Experimental: as §1, §2, §3

[3] = system: Candida albicans Gu5; conditions: C. albicans Gu5 (fluconazole-resistant, CDR1/2 overexpression), RPMI 1640/MOPS pH 7.0, 24 h, 37 °C, triplicate; for MIC50: at least 50% growth inhibition vs growth control; for MIC90: lowest concentration with no visible growth
Experimental: as §1, §2, §3

[4] = system: Candida albicans 247; conditions: 37 °C; for MIC50 / MIC90: C. albicans 247 (fluconazole-resistant clinical isolate), RPMI 1640/MOPS pH 7.0, 24 h, triplicate; for MIC50: at least 50% growth inhibition vs growth control; for MIC90: lowest concentration with no visible growth
Experimental: as §1, §2, §3

[5] = system: Candida glabrata DSM 6128; conditions: C. glabrata DSM 6128, RPMI 1640/MOPS pH 7.0, 24 h, 37 °C, triplicate; for MIC50: at least 50% growth inhibition vs growth control; for MIC90: lowest concentration with no visible growth
Experimental: as §1, §2, §3

[6] = system: Candida albicans 190; conditions: 37 °C; for MIC50 / MIC90: C. albicans 190 (fluconazole-resistant clinical isolate), RPMI 1640/MOPS pH 7.0, 24 h, triplicate; for MIC50: at least 50% growth inhibition vs growth control; for MIC90: lowest concentration with no visible growth
Experimental: as §1, §2, §3

[7] = system: Candida albicans 604; conditions: 37 °C; for MIC50 / MIC90: C. albicans 604 (fluconazole-resistant clinical isolate), RPMI 1640/MOPS pH 7.0, 24 h, triplicate; for MIC50: at least 50% growth inhibition vs growth control; for MIC90: lowest concentration with no visible growth
Experimental: as §1, §2, §3

[8] = system: Candida albicans ATCC 10231; conditions: C. albicans ATCC 10231, 37 °C; for MIC50 / MIC90: RPMI 1640/MOPS pH 7.0, 24 h, triplicate; for MIC50: at least 50% growth inhibition vs growth control; for MIC90: lowest concentration with no visible growth
Experimental: as §1, §2, §3

[9] = system: Candida albicans 574; conditions: C. albicans 574 (fluconazole-resistant clinical isolate), RPMI 1640/MOPS pH 7.0, 24 h, 37 °C, triplicate; for MIC50: at least 50% growth inhibition vs growth control; for MIC90: lowest concentration with no visible growth
Experimental: as §1, §2, §3

[10] = system: Candida albicans Gu4; conditions: 37 °C; for MIC50 / MIC90: C. albicans Gu4 (fluconazole-sensitive isolate), RPMI 1640/MOPS pH 7.0, 24 h, triplicate; for MIC50: at least 50% growth inhibition vs growth control; for MIC90: lowest concentration with no visible growth
Experimental: as §1, §2, §3

[11] = system: Candida albicans B3; conditions: 37 °C; for MIC50 / MIC90: C. albicans B3 (fluconazole-sensitive isolate), RPMI 1640/MOPS pH 7.0, 24 h, triplicate; for MIC50: at least 50% growth inhibition vs growth control; for MIC90: lowest concentration with no visible growth
Experimental: as §1, §2, §3

[12] = system: Candida albicans 48; conditions: 37 °C; for MIC50 / MIC90: C. albicans 48 (fluconazole-resistant clinical isolate), RPMI 1640/MOPS pH 7.0, 24 h, triplicate; for MIC50: at least 50% growth inhibition vs growth control; for MIC90: lowest concentration with no visible growth
Experimental: as §1, §2, §3

Structure (SMILES) | MIC50 [1] [µM] | MIC90 [1] [µM] | MFC [1] [µM] | MIC50 [2] [µM] | MIC90 [2] [µM] | MIC50 [3] [µM] | MIC90 [3] [µM] | MIC50 [4] [µM] | MIC90 [4] [µM] | MIC50 [5] [µM] | MIC90 [5] [µM] | MIC50 [6] [µM] | MIC90 [6] [µM] | MIC50 [7] [µM] | MIC90 [7] [µM] | MIC50 [8] [µM] | MIC90 [8] [µM] | MIC50 [9] [µM] | MIC90 [9] [µM] | MIC50 [10] [µM] | other results
CSCC[C@H](NC(=O)[C@H](CCCNC(=N)N)NC(=O)[C@H](Cc1c[nH]c2ccccc12)NC(=O)[C@H](CCC(N)=O)NC(=O)[C@H](Cc1c[nH]c2ccccc12)NC(=O)[C@H](CCCNC(=N)N)NC(=O)[C@H](CCCNC(=N)N)NC(=O)[C@H](CS)NC(=O)[C@H](CCCCN)NC(=O)[C@H](Cc1ccccc1)NC(=O)CCCC(=O)OC(Cn1cncn1)(Cn1cncn1)c1ccc(F)cc1F)C(N)=O [FLCpOH-LFacinB(2-11)-NH2] (X1-FKCRRWQWRM-NH2) | 31 (≈ 58.8 µg/mL) | 62 (≈ 118 µg/mL) | 125 (≈ 237 µg/mL) | 190 (≈ 361 µg/mL) | 250 (≈ 475 µg/mL) | >250 | >250 | 190 (≈ 361 µg/mL) | 250 (≈ 475 µg/mL) | >250 | >250 | 190 (≈ 361 µg/mL) | 250 (≈ 475 µg/mL) | 190 (≈ 361 µg/mL) | 250 (≈ 475 µg/mL) | 125 (≈ 237 µg/mL) | 250 (≈ 475 µg/mL) | 190 (≈ 361 µg/mL) | 250 (≈ 475 µg/mL) | >250 | MIC90 [10]: >250 µM; MIC50 [11]: 125 µM (≈ 237 µg/mL); MIC90 [11]: 250 µM (≈ 475 µg/mL); MIC50 [12]: 250 µM (≈ 475 µg/mL); MIC90 [12]: >250 µM
CC[C@H](C)[C@H](NC(=O)[C@H](CCCCN)NC(=O)[C@H](CCCCN)NC(=O)[C@H](C)NC(=O)[C@H](CC(C)C)NC(=O)[C@H](C)NC(=O)[C@H](C)NC(=O)[C@H](CC(C)C)NC(=O)[C@H](C)NC(=O)[C@H](CCCCN)NC(=O)[C@H](CC(C)C)NC(=O)[C@H](CC(N)=O)NC(=O)[C@@H](NC(=O)[C@H](CCCCN)NC(=O)CNC(=O)[C@H](CC(C)C)NC(=O)[C@H](CC(C)C)NC(=O)[C@H](Cc1ccc(O)cc1)NC(=O)CNC(=O)[C@H](C)NC(=O)CCCC(=O)OC(Cn1cncn1)(Cn1cncn1)c1ccc(F)cc1F)[C@@H](C)CC)C(=O)N[C@@H](CC(C)C)C(N)=O [FLCpOH-TP10-NH2] | 62 (≈ 160 µg/mL) | 125 (≈ 323 µg/mL) | 250 (≈ 646 µg/mL) | 62 (≈ 160 µg/mL) | 125 (≈ 323 µg/mL) | 62 (≈ 160 µg/mL) | 125 (≈ 323 µg/mL) | 45 (≈ 116 µg/mL) | 62 (≈ 160 µg/mL) | 62 (≈ 160 µg/mL) | 125 (≈ 323 µg/mL) | 45 (≈ 116 µg/mL) | 62 (≈ 160 µg/mL) | 45 (≈ 116 µg/mL) | 62 (≈ 160 µg/mL) | 15 (≈ 38.8 µg/mL) | 31 (≈ 80.1 µg/mL) | 45 (≈ 116 µg/mL) | 62 (≈ 160 µg/mL) | 45 (≈ 116 µg/mL) | MFC ([2]; C. albicans B4, aliquots plated on YPD agar, 24 h, lowest concentration with no colony growth): 125 µM (≈ 323 µg/mL); MFC ([4]; C. albicans 247, aliquots plated on YPD agar, 24 h, lowest concentration with no colony growth): 250 µM (≈ 646 µg/mL); MFC ([6]; C. albicans 190, aliquots plated on YPD agar, 24 h, lowest concentration with no colony growth): 250 µM (≈ 646 µg/mL); MFC ([7]; C. albicans 604, aliquots plated on YPD agar, 24 h, lowest concentration with no colony growth): 250 µM (≈ 646 µg/mL); MFC ([8]; aliquots plated on YPD agar, 24 h, lowest concentration with no colony growth): 62 µM (≈ 160 µg/mL); MIC90 [10]: 62 µM (≈ 160 µg/mL); MFC ([10]; C. albicans Gu4, aliquots plated on YPD agar, 24 h, lowest concentration with no colony growth): 62 µM (≈ 160 µg/mL); MIC50 [11]: 31 µM (≈ 80.1 µg/mL); MIC90 [11]: 62 µM (≈ 160 µg/mL); MFC ([11]; C. albicans B3, aliquots plated on YPD agar, 24 h, lowest concentration with no colony growth): 62 µM (≈ 160 µg/mL); MIC50 [12]: 45 µM (≈ 116 µg/mL); MIC90 [12]: 62 µM (≈ 160 µg/mL); MFC ([12]; C. albicans 48, aliquots plated on YPD agar, 24 h, lowest concentration with no colony growth): 250 µM (≈ 646 µg/mL)
